From ChEMBL document CHEMBL4680139, “Antiproliferative activity of diarylnaphthylpyrrolidine derivative via dual target inhibition” (Eur J Med Chem, 2020)
In brackets after ≈: the same amount, converted by molar mass.

Legend:
A549 = assay: Antiproliferative activity against human A549 cells assessed as inhibition of cell growth measured after 48 hrs by SRB assay; format: functional, cell-based; details: A549, 48 h
HCT-116 = assay: Antiproliferative activity against human HCT-116 cells assessed as inhibition of cell growth measured after 48 hrs by SRB assay; format: functional, cell-based; details: HCT-116, 48 h
MDA-MB-231 [1] = assay: Antiproliferative activity against human MDA-MB-231 cells assessed as inhibition of cell growth measured after 48 hrs by SRB assay; format: functional, cell-based; details: MDA-MB-231, 48 h
MCF7 [2] = assay: Antiproliferative activity against human MCF-7 cells assessed as inhibition of cell growth measured after 48 hrs by SRB assay; format: functional, cell-based; details: MCF7, 48 h
THP-1 = assay: Antiproliferative activity against human THP-1 cells assessed as inhibition of cell growth measured after 48 hrs by SRB assay; format: functional, cell-based; details: THP-1, 48 h
MCF7 [3] = assay: Antiproliferative activity against human MCF-7 cells assessed as inhibition of colony formation measured after 3 weeks by crystal violet staining based soft agar colony formation assay; format: functional, cell-based; details: MCF7, 504 h
MDA-MB-231 [4] = assay: Induction of apoptosis in human MDA-MB-231 cells assessed as proportion of necrotic cells at 1 ug measured after 24 hrs by Annexin V-FITC/propidium iodide staining based flow cytometry (reference value: 0.2%); format: functional; details: dose 1 µg
MDA-MB-231 [5] = assay: Induction of apoptosis in human MDA-MB-231 cells assessed as proportion of early apoptotic cells at 1 ug measured after 24 hrs by Annexin V-FITC/propidium iodide staining based flow cytometry (reference value: 0.2%); format: functional; details: dose 1 µg
MDA-MB-231 [6] = assay: Induction of apoptosis in human MDA-MB-231 cells assessed as proportion of viable cells at 1 ug measured after 24 hrs by Annexin V-FITC/propidium iodide staining based flow cytometry (reference value: 99%); format: functional; details: dose 1 µg
MDA-MB-231 [7] = assay: Induction of apoptosis in human MDA-MB-231 cells assessed as proportion of late apoptotic cells at 1 ug measured after 24 hrs by Annexin V-FITC/propidium iodide staining based flow cytometry (reference value: 0.5%); format: functional; details: dose 1 µg
[8] = Inhibition of bovine brain tubulin polymerisation measured by turbidometric method; format: tissue-based, Bos taurus
[9] = target: DNA topoisomerase 2-alpha (Homo sapiens) (UniProt P11388); assay: Inhibition of DNA-topoisomerase 2 in human MCF7 cells using kinetoplast DNA as substrate at 120 uM measured by ELISA; format: cell-based
Sequence of DNA topoisomerase 2-alpha (Homo sapiens) (P11388 whole entry): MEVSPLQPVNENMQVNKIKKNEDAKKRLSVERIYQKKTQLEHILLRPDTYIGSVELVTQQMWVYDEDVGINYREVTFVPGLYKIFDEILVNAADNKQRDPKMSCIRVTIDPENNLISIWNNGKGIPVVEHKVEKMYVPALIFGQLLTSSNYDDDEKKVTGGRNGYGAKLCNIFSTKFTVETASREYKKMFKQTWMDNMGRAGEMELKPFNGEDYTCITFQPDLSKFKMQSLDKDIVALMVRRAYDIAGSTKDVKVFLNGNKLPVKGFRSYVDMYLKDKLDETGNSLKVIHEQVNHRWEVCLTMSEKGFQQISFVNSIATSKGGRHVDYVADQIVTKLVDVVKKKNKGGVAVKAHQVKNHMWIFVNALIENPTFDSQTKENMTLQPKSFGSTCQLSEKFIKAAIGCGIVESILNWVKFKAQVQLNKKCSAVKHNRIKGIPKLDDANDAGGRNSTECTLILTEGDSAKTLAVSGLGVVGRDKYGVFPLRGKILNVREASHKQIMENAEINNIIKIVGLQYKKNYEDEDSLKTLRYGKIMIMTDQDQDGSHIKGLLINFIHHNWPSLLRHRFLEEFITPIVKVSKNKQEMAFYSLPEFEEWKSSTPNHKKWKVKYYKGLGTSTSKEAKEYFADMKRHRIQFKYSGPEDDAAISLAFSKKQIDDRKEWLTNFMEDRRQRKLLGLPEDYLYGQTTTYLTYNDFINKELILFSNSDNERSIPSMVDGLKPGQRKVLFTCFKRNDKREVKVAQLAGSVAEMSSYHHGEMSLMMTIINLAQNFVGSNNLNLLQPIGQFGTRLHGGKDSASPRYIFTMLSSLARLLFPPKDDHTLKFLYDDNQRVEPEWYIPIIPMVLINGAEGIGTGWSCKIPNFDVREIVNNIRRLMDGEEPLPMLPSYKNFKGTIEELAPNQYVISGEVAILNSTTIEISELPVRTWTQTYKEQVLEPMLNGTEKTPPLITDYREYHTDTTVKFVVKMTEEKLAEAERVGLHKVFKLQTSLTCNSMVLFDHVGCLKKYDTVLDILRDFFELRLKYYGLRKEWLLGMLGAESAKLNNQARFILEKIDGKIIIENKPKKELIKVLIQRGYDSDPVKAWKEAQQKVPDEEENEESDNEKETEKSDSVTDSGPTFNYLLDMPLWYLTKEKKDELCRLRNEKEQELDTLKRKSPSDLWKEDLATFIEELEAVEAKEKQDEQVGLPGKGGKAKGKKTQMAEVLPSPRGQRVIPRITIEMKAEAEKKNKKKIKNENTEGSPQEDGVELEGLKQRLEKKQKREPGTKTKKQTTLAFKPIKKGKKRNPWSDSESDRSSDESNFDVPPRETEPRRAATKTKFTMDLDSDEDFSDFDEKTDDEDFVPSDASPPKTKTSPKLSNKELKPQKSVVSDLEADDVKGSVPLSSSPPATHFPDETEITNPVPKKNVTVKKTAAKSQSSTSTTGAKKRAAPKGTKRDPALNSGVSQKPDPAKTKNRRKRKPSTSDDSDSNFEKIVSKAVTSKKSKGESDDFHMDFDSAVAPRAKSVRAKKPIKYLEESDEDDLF

| Compound | IC50 (A549) | IC50 (HCT-116) | IC50 (MDA-MB-231 [1]; read-out: IC50) | IC50 (MCF7 [2]) | IC50 (THP-1) | IC50 (MCF7 [3]) | Activity (MDA-MB-231 [4]) | Activity (MDA-MB-231 [5]) | Activity (MDA-MB-231 [6]) | IC50 (MDA-MB-231 [1]) | Activity (MDA-MB-231 [7]) | IC50 [8] | inhibition [9] |
| --- | --- | --- | --- | --- | --- | --- | --- | --- | --- | --- | --- | --- | --- |
| COc1ccc(C(OCc2ccc(C)cc2)c2cccc3ccccc23)c(OC)c1OC (stereo unspecified) | 15.7 µM | > 20 µM | > 20 µM | 10.7 µM | > 20 µM | – | – | – | – | – | – | – | – |
| CC/C(=C(\c1ccccc1)c1ccc(OCCN(C)C)cc1)c1ccccc1 [TAMOXIFEN] | 10.1 µM | 45 µM | > 20 µM | – | 11.9 µM | 1.31 µg/mL (≈ 3.53 µM) | – | – | – | – | – | – | – |
| COc1ccc(C(c2ccccc2OCCN2CCCCC2)c2cccc3ccccc23)c(OC)c1OC (stereo unspecified) | 9.86 µM | 4.63 µM | 7.18 µM | 12.4 µM | 19.1 µM | – | – | – | – | – | – | – | – |
| COc1ccc(C(c2ccccc2O)c2cccc3ccccc23)c(OC)c1OC (stereo unspecified) | 13.6 µM | > 20 µM | 17.7 µM | 16.6 µM | > 20 µM | – | – | – | – | – | – | – | – |
| COc1ccc(C(c2ccc(OCCN(C)C)cc2)c2cccc3ccccc23)c(OC)c1OC (stereo unspecified) | 10.2 µM | 3.3 µM | 14.3 µM | 15.2 µM | 7.95 µM | – | – | – | – | – | – | – | – |
| COc1ccc(C(c2ccc(OCCN3CCCCC3)cc2)c2cccc3ccccc23)c(OC)c1OC (stereo unspecified) | 15 µM | 11.9 µM | 15.2 µM | 15.4 µM | 16.6 µM | – | – | – | – | – | – | – | – |
| COc1cccc2c1C(=O)c1c(O)c3c(c(O)c1C2=O)C[C@@](O)(C(=O)CO)C[C@@H]3O[C@H]1C[C@H](N)[C@H](O)[C@H](C)O1 [DOXORUBICIN] | 0.63 µM | – | – | – | – | – | 80.1% | 0.1% | 13.7% | 5.12 µM | 6.2% | – | – |
| CCN(CC)CCOc1ccc(C(c2ccc(OC)c(OC)c2OC)c2cccc3ccccc23)cc1 (stereo unspecified) | 11.5 µM | 8.34 µM | 15.6 µM | 15.5 µM | 13.9 µM | – | – | – | – | – | – | – | – |
| COc1ccc(C(c2ccc(OC(C)CN(C)C)cc2)c2cccc3ccccc23)c(OC)c1OC (stereo unspecified) | 11.4 µM | 8.41 µM | 4.34 µM | 13.1 µM | 15 µM | – | – | – | – | – | – | – | – |
| COc1ccc(C(OCc2ccccc2)c2cccc3ccccc23)c(OC)c1OC (stereo unspecified) | 13.5 µM | > 20 µM | > 20 µM | 14.1 µM | > 20 µM | – | – | – | – | – | – | – | – |
| CCOC(=O)/C=C/CO/N=C(/c1ccc(OC)c(OC)c1OC)c1cccc2ccccc12 | 14 µM | > 20 µM | > 20 µM | > 20 µM | > 20 µM | – | – | – | – | – | – | – | – |
| COc1ccc(C(OCCN(C)C)c2cccc3ccccc23)c(OC)c1OC (stereo unspecified) | 17.9 µM | > 20 µM | > 20 µM | 11.1 µM | > 20 µM | – | – | – | – | – | – | – | – |
| COc1ccc(C(O)(Cc2ccc(F)cc2)c2cccc3ccccc23)c(OC)c1OC (stereo unspecified) | 5.94 µM | > 20 µM | 5.44 µM | 7.56 µM | 5.86 µM | – | – | – | – | – | – | – | – |
| COc1ccc(/C(=N/OC(C)=O)c2cccc3ccccc23)c(OC)c1OC | 17.2 µM | 4.98 µM | 17 µM | > 20 µM | > 20 µM | – | – | – | – | – | – | – | – |
| COc1ccc(/C(=C/c2ccc(F)cc2)c2cccc3ccccc23)c(OC)c1OC | 18.6 µM | > 20 µM | > 20 µM | 10.5 µM | 18.9 µM | – | – | – | – | – | – | – | – |
| CCOC(=O)CCO/N=C(/c1ccc(OC)c(OC)c1OC)c1cccc2ccccc12 | 19.6 µM | 10 µM | 15.2 µM | > 20 µM | > 20 µM | – | – | – | – | – | – | – | – |
| COc1ccc(/C(=C\c2ccc(F)cc2)c2cccc3ccccc23)c(OC)c1OC | > 20 µM | > 20 µM | 16.2 µM | 17.7 µM | 9.08 µM | – | – | – | – | – | – | – | – |
| COc1ccc(/C(=N/O)c2cccc3ccccc23)c(OC)c1OC | 13.1 µM | 5.88 µM | 2.5 µM | > 20 µM | > 20 µM | – | – | – | – | – | – | 5.58 µM | – |

| Compound | IC50 (A549) | IC50 (HCT-116) | IC50 (MDA-MB-231 [1]; read-out: IC50) | IC50 (MCF7 [2]) | IC50 (THP-1) | IC50 (MCF7 [3]) | Activity (MDA-MB-231 [4]) | Activity (MDA-MB-231 [5]) | Activity (MDA-MB-231 [6]) | IC50 (MDA-MB-231 [1]) | Activity (MDA-MB-231 [7]) | IC50 [8] | inhibition [9] |
| --- | --- | --- | --- | --- | --- | --- | --- | --- | --- | --- | --- | --- | --- |
| CCOC(=O)CO/N=C(/c1ccc(OC)c(OC)c1OC)c1cccc2ccccc12 | 6.72 µM | 3.36 µM | 16.4 µM | > 20 µM | > 20 µM | – | – | – | – | – | – | – | – |
| COc1ccc(C(c2ccc(OCC(=O)O)cc2)c2cccc3ccccc23)c(OC)c1OC (stereo unspecified) | 16.4 µM | 5.02 µM | > 20 µM | > 20 µM | > 20 µM | – | – | – | – | – | – | – | – |
| C=C(c1ccc(OC)c(OC)c1OC)c1cccc2ccccc12 | 19.8 µM | > 20 µM | 4.66 µM | 11.7 µM | 12.5 µM | – | – | – | – | – | – | 9.03 µM | – |
| COc1ccc(C(c2ccc(OCCO)cc2)c2cccc3ccccc23)c(OC)c1OC (stereo unspecified) | > 20 µM | > 20 µM | > 20 µM | > 20 µM | 16.6 µM | – | – | – | – | – | – | – | – |
| C=CCC(O)(c1ccc(OC)c(OC)c1OC)c1cccc2ccccc12 (stereo unspecified) | 10.7 µM | > 20 µM | > 20 µM | > 20 µM | > 20 µM | – | – | – | – | – | – | – | – |
| COc1ccc(/C(=N/OCC(=O)O)c2cccc3ccccc23)c(OC)c1OC | 17.2 µM | 4.98 µM | > 20 µM | > 20 µM | > 20 µM | – | – | – | – | – | – | – | – |
| COc1ccc(C(c2ccc(OCCN3CCCC3)cc2)c2cccc3ccccc23)c(OC)c1OC (stereo unspecified) | 15.8 µM | 10.8 µM | 14.4 µM | 15.3 µM | 5.4 µM | – | – | – | – | – | – | – | – |
| COc1ccc(C(O)(C/C=C\c2ccccc2)c2cccc3ccccc23)c(OC)c1OC (stereo unspecified) | 17.6 µM | > 20 µM | 12.8 µM | 10.2 µM | 19.4 µM | – | – | – | – | – | – | – | – |
| COC(=O)c1ccc(COC(c2ccc(OC)c(OC)c2OC)c2cccc3ccccc23)cc1 (stereo unspecified) | 12 µM | > 20 µM | > 20 µM | > 20 µM | > 20 µM | – | – | – | – | – | – | – | – |
| C=CCOC(c1ccc(OC)c(OC)c1OC)c1cccc2ccccc12 (stereo unspecified) | 9.71 µM | > 20 µM | > 20 µM | > 20 µM | > 20 µM | – | – | – | – | – | – | – | – |
| COc1cc([C@@H]2c3cc4c(cc3[C@H](O)[C@H]3COC(=O)[C@H]23)OCO4)cc(OC)c1OC [PODOFILOX] | 7.34 µM | > 20 µM | 5.73 µM | 10.9 µM | 19.6 µM | – | – | – | – | – | – | 0.72 µM | 26.9% |
| COc1cc(COC(c2ccc(OC)c(OC)c2OC)c2cccc3ccccc23)cc(OC)c1 (stereo unspecified) | 17.5 µM | > 20 µM | > 20 µM | > 20 µM | > 20 µM | – | – | – | – | – | – | – | – |
| CCOC(=O)C(C)C(O)(c1ccc(OC)c(OC)c1OC)c1cccc2ccccc12 (stereo unspecified) | 4 µM | > 20 µM | > 20 µM | > 20 µM | > 20 µM | – | – | – | – | – | – | – | – |
| COc1ccc(C(O)(Cc2ccc(C)cc2)c2cccc3ccccc23)c(OC)c1OC (stereo unspecified) | 18.7 µM | > 20 µM | > 20 µM | > 20 µM | > 20 µM | – | – | – | – | – | – | – | – |
| COc1ccc(C(O)(Cc2ccccc2)c2cccc3ccccc23)c(OC)c1OC (stereo unspecified) | > 20 µM | > 20 µM | 4.78 µM | 10.6 µM | 12.4 µM | – | – | – | – | – | – | 6.02 µM | – |
| COc1ccc(C(c2ccc(O)cc2)c2cccc3ccccc23)c(OC)c1OC (stereo unspecified) | 16.4 µM | 16 µM | 17.4 µM | 17.5 µM | 9.45 µM | – | – | – | – | – | – | – | – |
| COc1ccc(/C(=C/c2ccc(C)cc2)c2cccc3ccccc23)c(OC)c1OC | 19.6 µM | > 20 µM | 8.31 µM | > 20 µM | > 20 µM | – | – | – | – | – | – | – | – |
